In patent publication US20050245399A1, “Pyrazole derivatives as herbicidal compositions containing them” (ISHIHARA SANGYO KAISHA, LTD., priority 2004, published 2005):

How the values were obtained:
Assay type in all cases: in vivo
[1] = test system: barnyardgrass (Echinochloa crus-galli L.), ECHCG; test: Test Example 2 post-emergence (foliage treatment) herbicidal activity, ECHCG; settings: 63 g a.i./ha
Source text: (§1) Upland field soil was put into a 1/170,000 ha pot, and seeds of various plants were sown. Then, when the plants reached predetermined leaf stages {1. barnyardgrass (Echinochloa crus-galli L.), ECHCG: 1.1-2.1 leaf stage, 2. crabgrass (Digitaria sanguinalis L.), DIGSA: 1.0-2.0 leaf stage, 3. green foxtail (Setaria viridis L.), SETVI: 1.0-2.2 leaf stage, 4. redroot pigweed (Amaranthus retroflexus L.), AMARE: 0.1-1.5 leaf stage, 5. prickly sida (Sida spinosa L.), SIDSP: 0.1-0.6 leaf stage, 6. velvetleaf (Abutilon theophrasti), ABUTH: 0.1-0.6 leaf stage, 7. common cocklebur (Xanthium strumarium L.), XANST: 0.1 leaf stage, 8. rice (Oryza sativa L.), ORYSA; 1.0-2 leaf stage, 9. wheat (Triticum aestivum L.), TRZAX: 2.3-3.5 leaf stage, 10. corn (Zea mays L.), ZEAMXN 2.1-2.6 leaf stage, 11. soybean (Glycine max Merr.), GLXMA: primary leaf stage}, a wettable powder or emulsifiable concentrate having the compound of the present invention formulated in accordance with a usual formulation method, was weighed so that the active ingredient would be a predetermined amount, and diluted with water in an amount of 500 L/ha. To the diluted solution, 0.1% (v/v) of an agricultural spreader was added. The herbicide adjusted was applied by a small size sprayer for foliage treatment. On the 20th to 23rd day after the application of the herbicide, the growth of the respective plants was visually observed, and the herbicidal effects were evaluated by growth controlling degrees (%) ranging from 0 (equivalent to the untreated control) to 100 (complete kill), whereby the results shown in Table 5, were obtained. Compound Nos. in Table 5 correspond to Compound Nos. in Table 1 and 2 given hereinbefore.

[2] = test system: redroot pigweed (Amaranthus retroflexus L.): AMARE; test: Test Example 1 pre-emergence herbicidal activity, AMARE; settings: Rate 63 g a.i./ha, visually observed 20th to 23rd day after application
Source text: (§2) Upland field soil was put into a 1/170,000 ha pot, and seeds of various plants {1. barnyardgrass (Echinochloa crus-galli L.): ECHCG, 2. crabgrass (Digitaria sanguinalis L.): DIGSA, 3. green foxtail (Setaria viridis L.): SETVI, 4. redroot pigweed (Amaranthus retroflexus L.): AMARE, 5. prickly sida (Sida spinosa L.): SEDSP, 6. velvetleaf (Abutilon theophrasti): ABUTH, 7. common cocklebur (Xanthium strumarium L.): XANST, 8. rice (Oryza sativa L.): ORYSA, 9. wheat (Triticum aestivum L.): TRZAX, 10. corn (Zea mays L.): ZEAMX, 11. soybean (Glycine max Merr.): GLXMA} were sown. Then, one day after the sowing, a wettable powder or emulsifiable concentrate having the compound of the present invention formulated in accordance with a usual formulation method, was weighed so that the active ingredient would be a predetermined amount and diluted with water in an amount of 500 L/ha. The herbicide adjusted was applied by a small size sprayer for preemergence treatment. On the 20th to 23rd day after the application of the herbicide, the growth of the respective plants was visually observed, and the herbicidal effects were evaluated by growth controlling degrees (%) ranging from 0 (equivalent to the untreated control) to 100 (complete kill), whereby the results shown in Table 4, were obtained. Compound Nos. in Table 4 correspond to Compound Nos. in Table 1 and 2 given hereinbefore.

[3] = test system: velvetleaf (Abutilon theophrasti): ABUTH; test: Test Example 1 pre-emergence herbicidal activity, ABUTH; settings: Rate 63 g a.i./ha, visually observed 20th to 23rd day after application
Source text: as §2

[4] = test system: wheat (Triticum aestivum L.): TRZAX; test: Test Example 1 pre-emergence herbicidal activity, TRZAX; settings: Rate 63 g a.i./ha, visually observed 20th to 23rd day after application
Source text: as §2

[5] = test system: barnyardgrass (Echinochloa crus-galli L.): ECHCG; test: Test Example 1 pre-emergence herbicidal activity, ECHCG; settings: Rate 63 g a.i./ha, visually observed 20th to 23rd day after application
Source text: as §2

[6] = test system: corn (Zea mays L.), ZEAMX; test: Test Example 2 post-emergence (foliage treatment) herbicidal activity, ZEAMX; settings: 63 g a.i./ha
Source text: as §1

[7] = test system: soybean (Glycine max Merr.), GLXMA; test: Test Example 2 post-emergence (foliage treatment) herbicidal activity, GLXMA; settings: 63 g a.i./ha
Source text: as §1

[8] = test system: corn (Zea mays L.): ZEAMX; test: Test Example 1 pre-emergence herbicidal activity, ZEAMX; settings: Rate 63 g a.i./ha, visually observed 20th to 23rd day after application
Source text: as §2

[9] = test system: green foxtail (Setaria viridis L.), SETVI; test: Test Example 2 post-emergence (foliage treatment) herbicidal activity, SETVI; settings: 63 g a.i./ha
Source text: as §1

[10] = test system: crabgrass (Digitaria sanguinalis L.), DIGSA; test: Test Example 2 post-emergence (foliage treatment) herbicidal activity, DIGSA; settings: 63 g a.i./ha
Source text: as §1

[11] = test system: wheat (Triticum aestivum L.), TRZAX; test: Test Example 2 post-emergence (foliage treatment) herbicidal activity, TRZAX; settings: 63 g a.i./ha
Source text: as §1

[12] = test system: prickly sida (Sida spinosa L.): SEDSP; test: Test Example 1 pre-emergence herbicidal activity, SIDSP; settings: Rate 63 g a.i./ha, visually observed 20th to 23rd day after application
Source text: as §2

[13] = test system: velvetleaf (Abutilon theophrasti), ABUTH; test: Test Example 2 post-emergence (foliage treatment) herbicidal activity, ABUTH; settings: 63 g a.i./ha
Source text: as §1

[14] = test system: soybean (Glycine max Merr.): GLXMA; test: Test Example 1 pre-emergence herbicidal activity, GLXMA; settings: Rate 63 g a.i./ha, visually observed 20th to 23rd day after application
Source text: as §2

[15] = test system: crabgrass (Digitaria sanguinalis L.): DIGSA; test: Test Example 1 pre-emergence herbicidal activity, DIGSA; settings: Rate 63 g a.i./ha, visually observed 20th to 23rd day after application
Source text: as §2

[16] = test system: green foxtail (Setaria viridis L.): SETVI; test: Test Example 1 pre-emergence herbicidal activity, SETVI; settings: Rate 63 g a.i./ha, visually observed 20th to 23rd day after application
Source text: as §2

[17] = test system: rice (Oryza sativa L.): ORYSA; test: Test Example 1 pre-emergence herbicidal activity, ORYSA; settings: Rate 63 g a.i./ha, visually observed 20th to 23rd day after application
Source text: as §2

[18] = test system: rice (Oryza sativa L.), ORYSA; test: Test Example 2 post-emergence (foliage treatment) herbicidal activity, ORYSA; settings: 63 g a.i./ha
Source text: as §1

[19] = test system: prickly sida (Sida spinosa L.), SIDSP; test: Test Example 2 post-emergence (foliage treatment) herbicidal activity, SIDSP; settings: 63 g a.i./ha
Source text: as §1

SMILES | growth controlling degree, ECHCO [1] | Pre-emergence Herbicidal Activity AMARE (growth controlling degree) [2] | Pre-emergence Herbicidal Activity ABUTH (growth controlling degree) [3] | Pre-emergence Herbicidal Activity TRZAX (growth controlling degree) [4] | Pre-emergence Herbicidal Activity ECHCG (growth controlling degree) [5] | growth controlling degree, ZEAMX [6] | growth controlling degree, GLXMA [7] | Pre-emergence Herbicidal Activity ZEAMX (growth controlling degree) [8] | growth controlling degree, SETVI [9] | growth controlling degree, DIGSP [10] | growth controlling degree, TRZAX [11] | Pre-emergence Herbicidal Activity SIDSP (growth controlling degree) [12] | growth controlling degree, ABUTH [13] | Pre-emergence Herbicidal Activity GLXMA (growth controlling degree) [14] | Pre-emergence Herbicidal Activity DIGSP (growth controlling degree) [15] | Pre-emergence Herbicidal Activity SETVI (growth controlling degree) [16] | Pre-emergence Herbicidal Activity ORYSA (growth controlling degree) [17] | growth controlling degree, ORYSA [18] | growth controlling degree, SIDSP [19]
COc1c(Cl)cc(F)c(-c2nn(C)c(OC(F)F)c2Cl)c1NC(=O)OCC1CCCCC1 [Compound 1-73] | 100% | 100% | 10% | 0% | 30% | 10% | 50% | 0% | 70% | 10% | 50% | 20% | 100% | 0% | 20% | 60% | 10% | 50% | 100%
COc1c(Cl)cc(F)c(-c2nn(C)c(OC(F)F)c2Cl)c1NC(=O)C=Cc1ccccc1F [Compound 1-256] | 60% | 100% | 70% | 10% | 60% | 30% | 60% | 0% | 90% | 60% | 60% | 60% | 100% | 0% | 90% | 70% | 30% | 80% | 100%
COc1c(Cl)cc(F)c(-c2nn(C)c(OC(F)F)c2Cl)c1NC(=O)C=Cc1cccc(F)c1 [Compound 1-257] | 60% | 100% | 10% | 0% | 30% | 30% | 40% | 0% | 70% | 50% | 50% | 60% | 100% | 0% | 10% | 10% | 20% | 40% | 100%
COc1c(Cl)cc(F)c(-c2nn(C)c(OC(F)F)c2Cl)c1NC(=O)C=Cc1ccc(F)cc1 [Compound 1-258] | 60% | 100% | 70% | 0% | 10% | 10% | 20% | 0% | 60% | 40% | 10% | 70% | 100% | 0% | 70% | 30% | 40% | 40% | 100%
COc1c(Cl)cc(F)c(-c2nn(C)c(OC(F)F)c2Cl)c1NC(=O)c1ccc(C)cc1 [Compound 1-261] | 100% | 100% | 80% | 10% | 80% | 40% | 70% | 0% | 100% | 95% | 30% | 100% | 100% | 0% | 100% | 98% | 40% | 70% | 100%
COc1c(Cl)cc(F)c(-c2nn(C)c(OC(F)F)c2Cl)c1NC(=O)CC(C)(C)C [Compound 1-265] | 60% | 100% | 100% | 20% | 20% | 30% | 50% | 0% | 80% | 60% | 30% | 100% | 95% | 0% | 100% | 70% | 10% | 40% | 100%
